We go through 32 compounds from the METLIN SMRT retention time set (Domingo-Almenara et al. 2019).

This series is described as follows: gradient 5% acetonitrile 3 min, to 50% in 2 min, to 85% in 15 min, held 3 min, 100 µL/min. The settings on record: column: Zorbax Extend-C18 2.1 x 50 mm; eluents: water / acetonitrile, 0.1% formic acid. In short, it runs like this:
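A Zorbax Extend-C18 column (2.1 × 50 mm, 1.8 μm) run at 100 μL/min with water and acetonitrile, both containing 0.1% formic acid, separated mixtures of ~100 pure standards. The HPLC was coupled to a quadrupole time-of-flight mass spectrometer operated in positive and negative ionization mode, with dead and dwell volumes of 40 μL and 900 μL. Each retention time was taken from a computationally picked adduct peak that was then manually inspected.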
As for `O=C(NC(c1nnc(-c2ccccc2)o1)c1ccccc1Cl)c1ccco1` (configuration not stated), the RP-LC retention time is 911 s.

The compound `CN(C)CCn1nnc2cc(-c3noc(-c4ccc(Br)cc4)n3)ccc21` registered an RP-LC retention time of 727 s.

Compound `CCOCCCNC(=O)c1cc2sc(C)cc2n1C` showed an RP-LC retention time of 861 s.

`CCOC(=O)c1ccc(NC(=O)CCc2c(-c3ccc(Cl)cc3)nc3ccccn23)cc1` returned an RP-LC retention time of 752 s.

For `O=C(c1ccc(Cl)s1)N1CCc2nc(-c3ccc(F)cc3)ncc2C1`, the RP-LC retention time stood at 1070 s.

`CCOc1ccc(N2C=C(C(=O)N3CCOCC3)S(=O)(=O)c3ccc(F)cc32)cc1` gave an RP-LC retention time of 845 s.

Compound `Cc1nc(-c2ccc(-c3noc(-c4ccnn4C)n3)cc2)cs1` showed an RP-LC retention time of 1060 s.

`Cc1nc(-c2nnn(-c3ccc(Cl)cc3)c2C)sc1C(=O)NC1CCCCC1` came in with an RP-LC retention time of 1160 s.

On to `CN1C(=O)c2cc(C(=O)N3CCCCC3)nn2CC1(C)C(=O)NC1CCCCCC1` (configuration not stated), for which the RP-LC retention time was determined as 782 s.

For `CN1C(=O)C2(CCN(C(=O)c3ccnn3C)CC2)c2ccccc21`, the RP-LC retention time was determined as 699 s.

For `COc1ccc(CC(=O)N2CCN(c3nc4ccncc4n(C)c3=O)CC2)c(Cl)c1`, the RP-LC retention time was found to be 645 s.

The compound `CCOc1cc(=O)c(C(=O)N2CCC(C(N)=O)CC2)nn1-c1ccc(C)cc1` yielded an RP-LC retention time of 610 s.

Regarding `CCC(=O)N(C1CCOCC1)C1CCN(S(=O)(=O)c2cccnc2)CC1`, the RP-LC retention time came out at 807 s.

Turning to `COc1ccc(NC(=O)C2CCN(C(=O)C3Sc4ccccc4NC3=O)CC2)c(OC)c1` (configuration not stated), the RP-LC retention time amounted to 754 s.

`Cc1ccc(-n2ncc3c(=O)n(Cc4nc(-c5ccc(OC(C)C)cc5)no4)cnc32)cc1` registered an RP-LC retention time of 1200 s.

In turn, `O=C(Nc1ccc(N2CCOCC2)cc1)C1CCCN(c2nccnc2Sc2ccccc2)C1` (configuration not stated) registered an RP-LC retention time of 945 s.

Compound `Cc1ccc(NC(=O)CSc2ccc(N3CCCC(C(=O)NC4CC4)C3)nn2)cc1Cl` (configuration not stated) came in with an RP-LC retention time of 698 s.

For `CN1C(=O)c2cc(C(=O)NCCc3ccccc3)nn2CC1(C)C(=O)NCc1ccccc1` (configuration not stated), the RP-LC retention time amounted to 769 s.

`CCOC(=O)C1CCCN(C(=O)Cc2cc(-c3ccc(F)cc3)on2)C1` (configuration not stated) had an RP-LC retention time of 820 s.

As for `CNC(=O)C1CCCN(c2nc3ncn(CC(=O)Nc4ccc(F)cc4Cl)c(=O)c3s2)C1` (configuration not stated), the RP-LC retention time came out at 650 s.

`CCc1nn(CC)c(=O)c2cc(S(=O)(=O)NCc3ccc(Cl)cc3)cn12` registered an RP-LC retention time of 989 s.

Regarding `CCOc1cc(=O)n2c(c1C(=O)Nc1cc(Cl)ccc1F)CCCC2`, the RP-LC retention time stood at 806 s.

For `CCCOC(=O)c1[nH]c2c(c1C)C(=O)CC(c1cc(OC)c(OC)c(OC)c1)C2` (configuration not stated), the RP-LC retention time was determined as 610 s.

`CC(C)Oc1ccc(-c2noc(CN3C(=O)COc4cc(C(C)(C)C)ccc43)n2)cc1` registered an RP-LC retention time of 1370 s.

The compound `Cc1ccc2c(c1)OCC(=O)N2Cc1nc(-c2ccc(C(C)(C)C)cc2)no1` showed an RP-LC retention time of 1290 s.

For the compound `CCCn1cc(C2=CCN(C(=O)Nc3ccc4c(c3)OCCO4)CC2)c2cccnc21`, the RP-LC retention time amounted to 846 s.

`O=C([C@@H]1C[C@H](F)CN1S(=O)(=O)c1ccc(Br)cc1)N1CCCCC1` displayed an RP-LC retention time of 865 s.

In turn, `COc1cc(NC(=O)N2CCc3c(c(C(=O)N4CCCC4)nn3C)C2)cc(OC)c1` had an RP-LC retention time of 693 s.

In turn, `COc1cc2nc(C(=O)N3CCCCC3)cc(Nc3ccc(Br)c(C)c3)c2cc1OC` showed an RP-LC retention time of 779 s.

`CCNC(=O)C1CCN(S(=O)(=O)c2cc(-c3noc(C)n3)cs2)CC1` displayed an RP-LC retention time of 713 s.

As for `COc1ccc(-c2nc(NCCN(Cc3ccco3)C3CCCC3)c3ccccc3n2)cc1`, the RP-LC retention time turned out to be 604 s.

`CCn1cccc1-c1nc(C)c(C(=O)Nc2ccc(C)c(C)c2)s1` showed an RP-LC retention time of 1270 s.
